Patent publication US10718778B2, “Compositions and methods for detecting protein sulfenylation” (THE REGENTS OF THE UNIVERSITY OF MICHIGAN, priority 2014, dated 2020)

Key:
[1] = system: live HEK293T cells; test: labeling of live HEK293T cells
[2] = system: B-cell hybridomas; test: ratiometric imaging of sulfenylation in live cells by TIRF microscopy; type: cell-based
Experimental: Next, whether DiNap-1F could be used for ratiometric imaging sulfenylation in live cells by Total Internal Reflectance Fluorescence (TIRF) microscopy was tested.

With `Nc1ccc2c3c(cccc13)C(=O)C(F)=C2O` [DiNap-1F] the cell permeability ([1]; live mammalian cells) was “validating cell permeability”, the “labeling of live mammalian cells” value ([1]; time and concentration dependence) was “labeled efficiently” and the “excitation ratio change over time” value [2] was “clearly elicited a robust excitation ratio change over time”.
